From paper PMC10763615, “Identification and engineering of potent cyclic peptides with selective or promiscuous binding through biochemical profiling and bioinformatic data analysis” (RSC Chemical Biology, 2023) come the findings set out here.

What all share (format): binding
One assay addresses T1, FGF-R4 ECD (Homo sapiens, UniProt P22455).
T1 construct: DNA constructs for the extracellular domain (ECD) of human FGF-; HPC4 (C); made in house; host or cells: HEK 293-6E
T1 sequence (P22455 22-369 limits assumed): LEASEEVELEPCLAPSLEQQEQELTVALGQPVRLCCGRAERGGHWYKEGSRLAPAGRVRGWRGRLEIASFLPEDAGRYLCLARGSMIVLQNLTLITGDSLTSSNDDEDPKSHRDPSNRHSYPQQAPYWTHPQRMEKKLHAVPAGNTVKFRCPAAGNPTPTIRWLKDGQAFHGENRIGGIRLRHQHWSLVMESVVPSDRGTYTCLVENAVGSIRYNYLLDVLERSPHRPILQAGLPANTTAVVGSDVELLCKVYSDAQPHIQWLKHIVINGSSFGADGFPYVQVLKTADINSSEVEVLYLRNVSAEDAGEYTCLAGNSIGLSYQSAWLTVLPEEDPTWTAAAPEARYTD
Briefly: single concentration BLI of crude peptides. The conditions noted are these: crude T18 selection 1 (1:1:1) peptides, single concentration BLI (Table S4); read-out: KD (4). Summed up: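 BLI, streptavidin sensors loaded with biotinylated receptor ECD. Single-point: ~1 μM crude peptide, PBS pH7.4/0.05% Tween-20/0.01% BSA; association then dissociation in buffer. KD corrected for UPLC-CAD-determined concentration.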

Another assay concerns the target T2, FGF-R3C ECD (Homo sapiens, UniProt P22607).
T2 sequence (P22607 23-375 limits assumed): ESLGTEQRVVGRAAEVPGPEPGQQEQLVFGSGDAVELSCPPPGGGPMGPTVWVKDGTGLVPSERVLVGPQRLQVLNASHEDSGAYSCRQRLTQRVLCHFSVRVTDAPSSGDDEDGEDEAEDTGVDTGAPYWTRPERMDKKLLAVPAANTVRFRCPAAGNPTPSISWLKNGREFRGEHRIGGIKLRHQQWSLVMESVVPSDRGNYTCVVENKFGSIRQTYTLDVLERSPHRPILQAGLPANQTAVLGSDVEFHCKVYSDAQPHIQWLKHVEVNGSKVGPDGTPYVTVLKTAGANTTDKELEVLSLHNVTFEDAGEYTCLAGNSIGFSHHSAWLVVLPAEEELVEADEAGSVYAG
As to the kind of experiment: biochemical. Also on record: DNA constructs for the extracellular domain (ECD) of human FGF-; HPC4 (C); made in house; host or cells: HEK 293-6E. Summed up: (§1)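 Biotinylated FGF-R ECD on streptavidin biosensors was dipped into ~1 μM crude peptide in PBS pH7.4 with 0.05% Tween-20 and 0.01% BSA for association, then into buffer for dissociation, and followed by BLI. Fitted KD values were adjusted for peptide concentration measured by UPLC-CAD.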

Another assay concerns the target T3, FGF-R1C ECD (Homo sapiens, UniProt P11362).
T3 sequence (P11362 22-376 limits assumed): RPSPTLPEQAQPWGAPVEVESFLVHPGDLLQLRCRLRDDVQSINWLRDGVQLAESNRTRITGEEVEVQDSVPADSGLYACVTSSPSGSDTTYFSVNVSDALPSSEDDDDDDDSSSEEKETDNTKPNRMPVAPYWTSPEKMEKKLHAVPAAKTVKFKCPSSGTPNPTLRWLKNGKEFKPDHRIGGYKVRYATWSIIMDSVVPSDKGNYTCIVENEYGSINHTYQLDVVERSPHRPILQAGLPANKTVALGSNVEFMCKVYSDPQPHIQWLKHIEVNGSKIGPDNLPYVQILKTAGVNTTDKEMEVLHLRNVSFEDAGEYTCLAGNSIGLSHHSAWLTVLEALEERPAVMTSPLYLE
As to the kind of experiment: biochemical. Also on record: DNA constructs for the extracellular domain (ECD) of human FGF-; HPC4 (C); made in house; host or cells: HEK 293-6E. Summed up: as §1

Positions of bridges follow the written chain, without caps; N, C: chain ends. Residues, ends and D or L forms follow the SMILES beside them.

Regarding `CSCC[C@H](NC(C)=O)C(=O)N[C@H]1CSSC[C@@H](C(=O)NCC(=O)N[C@@H](CO)C(=O)NCC(=O)N[C@@H](CO)C(=O)N[C@@H](CCC(=O)O)C(=O)N[C@@H](CCC(=O)O)C(=O)NCC(=O)N[C@@H](CO)C(=O)NCC(=O)N[C@@H](CO)C(=O)N[C@@H](CC(=O)O)C(=O)N[C@@H](Cc2ccc(O)cc2)C(=O)N[C@@H](CCCCN)C(=O)N[C@@H](CC(=O)O)C(=O)N[C@@H](CC(=O)O)C(=O)N[C@@H](CC(=O)O)C(=O)N[C@@H](CC(=O)O)C(=O)N[C@@H](CCCCN)C(N)=O)NC(=O)[C@H](CCCNC(=N)N)NC(=O)[C@H](CCC(N)=O)NC(=O)[C@H](Cc2c[nH]cn2)NC(=O)[C@H](Cc2c[nH]c3ccccc23)NC(=O)[C@H](CC(C)C)NC(=O)[C@H](CCCCN)NC(=O)[C@H](Cc2c[nH]c3ccccc23)NC(=O)[C@H](Cc2ccc(O)cc2)NC(=O)[C@H](Cc2ccccc2)NC(=O)[C@H](CC(C)C)NC(=O)[C@H](Cc2c[nH]cn2)NC(=O)[C@H](CCCNC(=N)N)NC1=O` (Ac-MCRHLFYWKLWHQRCGSGSEEGSGSDYKDDDDK-NH2; disulfide 2-15), the dissociation constant (Kd) on FGF-R4 ECD is 0.002 µM; at FGF-R3C ECD, greater than 10 µM; at FGF-R1C ECD, greater than 10 µM.
`CSCC[C@H](NC(C)=O)C(=O)N[C@H]1CSSC[C@@H](C(=O)NCC(=O)N[C@@H](CO)C(=O)NCC(=O)N[C@@H](CO)C(=O)N[C@@H](CCC(=O)O)C(=O)N[C@@H](CCC(=O)O)C(=O)NCC(=O)N[C@@H](CO)C(=O)NCC(=O)N[C@@H](CO)C(=O)N[C@@H](CC(=O)O)C(=O)N[C@@H](Cc2ccc(O)cc2)C(=O)N[C@@H](CCCCN)C(=O)N[C@@H](CC(=O)O)C(=O)N[C@@H](CC(=O)O)C(=O)N[C@@H](CC(=O)O)C(=O)N[C@@H](CC(=O)O)C(=O)N[C@@H](CCCCN)C(N)=O)NC(=O)[C@H](Cc2c[nH]cn2)NC(=O)[C@H](Cc2ccccc2)NC(=O)[C@H](CC(C)C)NC(=O)[C@H](CCCCN)NC(=O)[C@H](Cc2c[nH]c3ccccc23)NC(=O)[C@H](Cc2ccc(O)cc2)NC(=O)[C@H](Cc2ccc(O)cc2)NC(=O)[C@H](CC(C)C)NC(=O)[C@H](Cc2c[nH]cn2)NC(=O)[C@H](CCCNC(=N)N)NC(=O)CNC(=O)[C@H]([C@@H](C)O)NC1=O` (Ac-MCTGRHLYYWKLFHCGSGSEEGSGSDYKDDDDK-NH2; disulfide 2-15): the values for the Kd at FGF-R4 ECD, at FGF-R3C ECD and at FGF-R1C ECD were 0.01 µM, greater than 10 µM and greater than 10 µM, respectively.
Consider `CC[C@H](C)[C@@H]1NC(=O)[C@H](CCCCN)NC(=O)[C@@H](NC(=O)[C@H](CCSC)NC(C)=O)CSSC[C@@H](C(=O)NCC(=O)N[C@@H](CO)C(=O)NCC(=O)N[C@@H](CO)C(=O)N[C@@H](CC(=O)O)C(=O)N[C@@H](Cc2ccc(O)cc2)C(=O)N[C@@H](CCCCN)C(=O)N[C@@H](CC(=O)O)C(=O)N[C@@H](CC(=O)O)C(=O)N[C@@H](CC(=O)O)C(=O)N[C@@H](CC(=O)O)C(=O)N[C@@H](CCCCN)C(N)=O)NC(=O)[C@H](C(C)C)NC(=O)[C@H](Cc2c[nH]c3ccccc23)NC(=O)[C@H](Cc2c[nH]c3ccccc23)NC(=O)[C@H](Cc2ccccc2)NC(=O)[C@H](CCCCN)NC(=O)[C@H](Cc2c[nH]cn2)NC(=O)[C@H](CC(=O)O)NC(=O)[C@H](C(C)C)NC(=O)[C@H](Cc2ccc(O)cc2)NC(=O)[C@H](Cc2c[nH]c3ccccc23)NC1=O` (Ac-MCKIWYVDHKFWWVCGSGSDYKDDDDK-NH2; disulfide 2-15), for which the dissociation constant Kd at FGF-R4 ECD was 0.002 µM; on FGF-R3C ECD, greater than 10 µM; at FGF-R1C ECD, greater than 10 µM.

In general, Kd refers to the constant that tells how readily two partners part at equilibrium.
